The text below walks through data of patent publication US20120052528A1, “METHOD FOR PRODUCING SELECTIVE MEDIUM AND USE THEREOF” (THE UNIVERSITY OF TOKYO, priority 2009, published 2012).

For assay [1], the system named is contaminating germs in soil. Briefly: Limited search of carbon sources: assimilation by contaminating germs in soil. In kind it is cell-based. Particulars: conclusion from Table 5.
Assay [2] deals with filamentous bacterial cells. Briefly: Limited search of carbon sources: colony formation of filamentous bacterial cells from a soil suspension on carbon-source agar medium. The following applies: soil suspension smeared on agar medium with the carbon source, 30° C., 5 days; relative value, carbon source-free medium = 100%.
Description: (§1) Any carbon source, crystal violet (antibiotic) and agar are mixed with basic medium components so as to prepare an agar medium. A soil suspension (100 p1) prepared by suspending of soil for plant cultivation (1 g) in water (100 ml) is smeared (repeatedly 3 times) on the medium, followed by culture at 30° C. for 5 days. The numbers of colonies of filamentous bacterial cells and other bacterial cells that are formed on the medium are counted. Each counted value is represented as a relative value (%) determined based on the number of colonies formed on a “carbon source-free” medium (100%). If the degree of colony formation is less than 30 (for filamentous bacterial cells) and is less than 60 (for bacterial cells), the carbon source is selected as a carbon source having high growth inhibitory effects. The smaller value indicates the smaller number of contaminating germs (filamentous bacteria and other bacteria) that assimilate the carbon source.
The next assay concerns other bacterial cells. As to the kind of experiment: Limited search of carbon sources: colony formation of other bacterial cells from a soil suspension on carbon-source agar medium. Particulars: soil suspension smeared on agar medium with the carbon source, 30° C., 5 days; relative value, carbon source-free medium = 100%.

Description for other bacterial cells: as §1

On to `O=C[C@@H](O)[C@H](O)[C@H](O)CO` [Arabinose], for which, in assay [1], the “likelihood of assimilation of the carbon source by contaminating germs in soil” value (“likelihood” for short) is on record as “less likely to be assimilated”. Also, the “Filamentous bacterial cells Average number of grown colonies ± standard error” value in assay [2] is listed as 100 ± 0%. Also, in the assay on other bacterial cells, the “Other bacterial cells Average number of grown colonies ± standard error” value is 51 ± 2%.

For `N=C(N)NCCC[C@H](N)C(=O)O` [Arginine], the “likelihood” value in assay [1] is “less likely to be assimilated”. For the same compound, the “Filamentous bacterial cells Average number of grown colonies ± standard error” value in assay [2] is reported as 19 ± 8%. Further, in the assay with other bacterial cells, the “Other bacterial cells Average number of grown colonies ± standard error” value was found to be 99 ± 3%.

Take `N[C@@H](CC(=O)O)C(=O)O` [Aspartic acid]: the “likelihood” value in assay [1] is “less likely to be assimilated”. Further, in assay [2], the “Filamentous bacterial cells Average number of grown colonies ± standard error” value is listed as 11 ± 9%. For the same compound, in the assay with other bacterial cells, the “Other bacterial cells Average number of grown colonies ± standard error” value was 32 ± 3%.

Consider `O=C[C@H](O)[C@@H](O)[C@H](O[C@@H]1O[C@H](CO)[C@@H](O)[C@H](O)[C@H]1O)[C@H](O)CO` [Cellobiose], for which the “Filamentous bacterial cells Average number of grown colonies ± standard error” value in assay [2] was found to be 42 ± 18%. Also, the “Other bacterial cells Average number of grown colonies ± standard error” value in the assay on other bacterial cells turned out to be 76 ± 5%.

As for `O=C(CO)[C@@H](O)[C@H](O)[C@H](O)CO` [Fructose], the “Filamentous bacterial cells Average number of grown colonies ± standard error” value in assay [2] was found to be 100 ± 0%. Moreover, the “Other bacterial cells Average number of grown colonies ± standard error” value in the assay on other bacterial cells is listed as 84 ± 3%.

Consider `N[C@@H](CCC(=O)O)C(=O)O` [Glutamic acid], for which the “Filamentous bacterial cells Average number of grown colonies ± standard error” value in assay [2] is reported as 83 ± 14%. In the assay with other bacterial cells, the “Other bacterial cells Average number of grown colonies ± standard error” value is recorded as 66 ± 6%.

As for `NC(=O)CC[C@H](N)C(=O)O` [Glutamine], in assay [2], the “Filamentous bacterial cells Average number of grown colonies ± standard error” value turned out to be 100 ± 0%. In addition, the “Other bacterial cells Average number of grown colonies ± standard error” value in the assay with other bacterial cells is given as 66 ± 4%.

`NCC(=O)O` [Glycine]: the “Filamentous bacterial cells Average number of grown colonies ± standard error” value in assay [2] is given as 72 ± 2%. Moreover, the “Other bacterial cells Average number of grown colonies ± standard error” value with other bacterial cells turned out to be 69 ± 5%.

As for `N[C@@H](Cc1c[nH]cn1)C(=O)O` [Histidine], the “Filamentous bacterial cells Average number of grown colonies ± standard error” value in assay [2] stood at 203 ± 32%. In addition, the “Other bacterial cells Average number of grown colonies ± standard error” value in the assay on other bacterial cells was 62 ± 2%.

In the case of `O[C@H]1[C@H](O)[C@@H](O)[C@H](O)[C@@H](O)[C@H]1O` [Inositol], the “likelihood” value in assay [1] is given as “less likely to be assimilated”. For the same compound, in assay [2], the “Filamentous bacterial cells Average number of grown colonies ± standard error” value is recorded as 0 ± 0%. Also, in the assay with other bacterial cells, the “Other bacterial cells Average number of grown colonies ± standard error” value came to 57 ± 7%.

`CC[C@H](C)[C@H](N)C(=O)O` [Isoleucine]: in assay [1], the “likelihood” value is recorded as “less likely to be assimilated”. Further, the “Filamentous bacterial cells Average number of grown colonies ± standard error” value in assay [2] came to 28 ± 2%. Moreover, in the assay with other bacterial cells, the “Other bacterial cells Average number of grown colonies ± standard error” value was 44 ± 2%.

In the case of `OC[C@H]1O[C@@H](O[C@H]2[C@H](O)[C@@H](O)C(O)O[C@@H]2CO)[C@H](O)[C@@H](O)[C@H]1O` (stereo partly drawn) [Lactose], in assay [2], the “Filamentous bacterial cells Average number of grown colonies ± standard error” value is reported as 128 ± 2%. Besides, the “Other bacterial cells Average number of grown colonies ± standard error” value with other bacterial cells was determined as 77 ± 4%.

Take `CC(C)C[C@H](N)C(=O)O` [Leucine]: the “likelihood” value in assay [1] is “less likely to be assimilated”. In addition, the “Filamentous bacterial cells Average number of grown colonies ± standard error” value in assay [2] came out at 67 ± 141%. Also, the “Other bacterial cells Average number of grown colonies ± standard error” value in the assay with other bacterial cells is listed as 42 ± 3%.

On to `NCCCC[C@H](N)C(=O)O` [Lysine], for which the “likelihood” value in assay [1] is given as “less likely to be assimilated”. Also, the “Filamentous bacterial cells Average number of grown colonies ± standard error” value in assay [2] is given as 33 ± 14%. Moreover, the “Other bacterial cells Average number of grown colonies ± standard error” value in the assay on other bacterial cells came out at 56 ± 5%.

Take `OC[C@@H](O)[C@@H](O)[C@H](O)[C@H](O)CO` [Mannitol]: the “likelihood” value in assay [1] is “less likely to be assimilated”. In addition, the “Filamentous bacterial cells Average number of grown colonies ± standard error” value in assay [2] came out at 27 ± 17%. The “Other bacterial cells Average number of grown colonies ± standard error” value with other bacterial cells was 54 ± 4%.

For `CSCC[C@H](N)C(=O)O` [Methionine], the “likelihood” value in assay [1] is given as “less likely to be assimilated”. For the same compound, the “Filamentous bacterial cells Average number of grown colonies ± standard error” value in assay [2] was determined as 38 ± 16%. Also, the “Other bacterial cells Average number of grown colonies ± standard error” value in the assay on other bacterial cells turned out to be 38 ± 4%.

Consider `N[C@@H](Cc1ccccc1)C(=O)O` [Phenylalanine], for which the “likelihood” value in assay [1] is “less likely to be assimilated”. In addition, in assay [2], the “Filamentous bacterial cells Average number of grown colonies ± standard error” value was 47 ± 19%. In addition, the “Other bacterial cells Average number of grown colonies ± standard error” value with other bacterial cells is recorded as 36 ± 6%.

On to `O=C(O)[C@@H]1CCCN1` [Proline], for which the “likelihood” value in assay [1] is recorded as “less likely to be assimilated”. In assay [2], the “Filamentous bacterial cells Average number of grown colonies ± standard error” value came out at 11 ± 9%. The “Other bacterial cells Average number of grown colonies ± standard error” value in the assay on other bacterial cells stood at 66 ± 4%.

For the compound `OC[C@@H](O)[C@@H](O)[C@@H](O)CO` [Ribitol], in assay [2], the “Filamentous bacterial cells Average number of grown colonies ± standard error” value worked out at 139 ± 11%. For the same compound, the “Other bacterial cells Average number of grown colonies ± standard error” value with other bacterial cells is listed as 67 ± 2%.

On to `N[C@@H](CO)C(=O)O` [Serine], for which the “Filamentous bacterial cells Average number of grown colonies ± standard error” value in assay [2] came out at 131 ± 16%. In addition, the “Other bacterial cells Average number of grown colonies ± standard error” value with other bacterial cells worked out at 87 ± 3%.

As for `O=C([O-])CCCCC(=O)[O-].[Na+].[Na+]` [Sodium adipate], in assay [2], the “Filamentous bacterial cells Average number of grown colonies ± standard error” value is 36 ± 18%. Further, the “Other bacterial cells Average number of grown colonies ± standard error” value with other bacterial cells was determined as 122 ± 10%.

On to `OC[C@@H](O)[C@@H](O)[C@H](O)[C@@H](O)CO` [Sorbitol], for which the “Filamentous bacterial cells Average number of grown colonies ± standard error” value in assay [2] stood at 128 ± 2%. Besides, the “Other bacterial cells Average number of grown colonies ± standard error” value in the assay with other bacterial cells is reported as 63 ± 5%.

`O=C(CO)[C@H](O)[C@@H](O)[C@H](O)CO` [Sorbose]: in assay [2], the “Filamentous bacterial cells Average number of grown colonies ± standard error” value is 128 ± 2%. Moreover, in the assay on other bacterial cells, the “Other bacterial cells Average number of grown colonies ± standard error” value was determined as 68 ± 3%.

On to `OC[C@H]1O[C@@](CO)(O[C@H]2O[C@H](CO)[C@@H](O)[C@H](O)[C@H]2O)[C@@H](O)[C@@H]1O` [Sucrose], for which the “Filamentous bacterial cells Average number of grown colonies ± standard error” value in assay [2] was 211 ± 15%. Moreover, the “Other bacterial cells Average number of grown colonies ± standard error” value in the assay with other bacterial cells is reported as 71 ± 4%.

With `O=C(O)C(O)C(O)C(=O)O` (stereo not drawn) [Tartaric acid], in assay [2], the “Filamentous bacterial cells Average number of grown colonies ± standard error” value was determined as 64 ± 6%. In addition, the “Other bacterial cells Average number of grown colonies ± standard error” value in the assay on other bacterial cells worked out at 81 ± 3%.

Turning to `C[C@@H](O)[C@H](N)C(=O)O` [Threonine], the “likelihood” value in assay [1] is “less likely to be assimilated”. Further, the “Filamentous bacterial cells Average number of grown colonies ± standard error” value in assay [2] came to 0 ± 0%. The “Other bacterial cells Average number of grown colonies ± standard error” value in the assay with other bacterial cells was 59 ± 5%.

For the compound `OC[C@H]1O[C@H](O[C@H]2O[C@H](CO)[C@@H](O)[C@H](O)[C@H]2O)[C@H](O)[C@@H](O)[C@@H]1O` [Trehalose], the “likelihood” value in assay [1] is given as “less likely to be assimilated”. Moreover, in assay [2], the “Filamentous bacterial cells Average number of grown colonies ± standard error” value is reported as 156 ± 5%. In addition, in the assay on other bacterial cells, the “Other bacterial cells Average number of grown colonies ± standard error” value stood at 51 ± 7%.

For `N[C@@H](Cc1c[nH]c2ccccc12)C(=O)O` [Tryptophan], in assay [2], the “Filamentous bacterial cells Average number of grown colonies ± standard error” value was found to be 167 ± 18%. Besides, in the assay with other bacterial cells, the “Other bacterial cells Average number of grown colonies ± standard error” value is 100 ± 5%.

Turning to `N[C@@H](Cc1ccc(O)cc1)C(=O)O` [Tyrosine], the “likelihood” value in assay [1] is “less likely to be assimilated”. In addition, the “Filamentous bacterial cells Average number of grown colonies ± standard error” value in assay [2] turned out to be 81 ± 39%. Moreover, in the assay with other bacterial cells, the “Other bacterial cells Average number of grown colonies ± standard error” value came out at 55 ± 4%.

As to `CC(C)[C@H](N)C(=O)O` [Valine], the “likelihood” value in assay [1] is reported as “less likely to be assimilated”. Also, the “Filamentous bacterial cells Average number of grown colonies ± standard error” value in assay [2] is reported as 19 ± 8%. In the assay on other bacterial cells, the “Other bacterial cells Average number of grown colonies ± standard error” value stood at 38 ± 5%.

With Polygalacturonic acid, in assay [1], the “likelihood” value is listed as “less likely to be assimilated”. In addition, the “Filamentous bacterial cells Average number of grown colonies ± standard error” value in assay [2] was determined as 8 ± 7%. The “Other bacterial cells Average number of grown colonies ± standard error” value with other bacterial cells is given as 19 ± 2%.
